In patent publication US11739089B2, “Acetamido-phenyltetrazole derivatives and methods of using the same” (Athenex, Inc., priority 2020, dated 2023):
Where two headings read alike, the source gives them in different places.

Experiments:
P-glycoprotein = P-glycoprotein (Homo sapiens (Human), UniProt P08183); assay: P-glycoprotein inhibitory activity: MTT cell growth assay in P-gp overexpressing MES-SA/DX5 cells with docetaxel or paclitaxel; format: cell-based; details: 3 days, with 100 nM docetaxel or 200 nM paclitaxel, MTT readout
Method: P-glycoprotein inhibitory activity may be determined by an assay wherein P-glycoprotein overexpressed cell lines are treated with increasing concentrations of a compound of the present disclosure and therapeutic agent for three days, followed by an MTT assay.
Cell growth percentage may be calculated with the following equation: Cell growth percentage=(T−T0)/(C−T0)×100%, wherein T is OD of the test well exposure to Compound; C is OD of the control well without Compound treatment; and T0 is OD at time zero.
A P-glycoprotein overexpressing cell line derived from the human uterine sarcoma cell line MES-SA (i.e., MES-SA/DX5 cells (ATCC)) was seeded by stepwise exposures to increasing concentrations of doxorubicin, in a 96-well plate at 6,500 cells/100 μL media (McCoy's 5A+10% FBS) in each well. The cells were incubated overnight at 37° C. 5% CO2. Compounds were diluted in a separate 96-well plate to yield 11× of final concentration (final Compound concentrations were 0, 5, 20, 80, 320, and 1280 nM and the final docetaxel concentration was 100 nM or the final paclitaxel concentration was 200 nM). DMSO was used as a negative control and known P-glycoprotein inhibitor, encequidar methane sulfonic acid monohydrate (HM30181A), was used as a positive control. 10 μL of the 11× dilutions was added to the appropriate well, P-glycoprotein inhibition wells comprised Compound+docetaxel (or Compound+paclitaxel). The compound toxicity wells comprised 1280 nM Compound+10 μL of culture media. Treated the cells were incubated for 3 days at 37° C. 5% CO2.
To value (reflecting the starting number of cells upon Compound treatment) of 3 wells of cells was determined by performing the following steps 1-4 as described below.
1. 10 μL MTT (5 mg/mL in PBS) was added to each well and incubated for 1.5 hours at 37° C. 5% CO2.
2. Culture media was removed and 100 μL of DMSO was added to each well.
3. The plate was gently shook until all purple MTT formazan crystals were dissolved. OD540 was then measured using microplate reader.
4. Cell growth percentage was calculated with the following equation: Cell growth percentage=(T−T0)/(C−T0)×100%, wherein T is OD of the test well exposure to Compound; C is OD of the control well without Compound treatment; and T0 is OD at time zero.

CYP3A4 = CYP3A4 (Homo sapiens (Human), UniProt P08684); assay: CYP3A4 inhibitory activity: Luciferin-IPA (P450-Glo) assay with human liver microsome
Method: Cytochrome P450 activity may be determined by a P450-Glo™ assay (Promega) with human liver microsomes wherein the compounds of the present disclosure are dosed at different concentrations in buffer and incubated. Dose-response curve and IC50 data may be obtained and fit to a nonlinear regression model using GraphPad Prism software (v6.0).
The standard final Compound concentrations were 37, 111, 333, 1000, and 3000 nM. 12.5 μL of the Compound dilutions were transferred to a white 96-well plate. 1450 μL (enough for a whole plate) of 4× assay buffer (400 mM potassium phosphate buffer (10 mL 1M potassium phosphate buffer: 8.02 mL 1M K2HPO4+1.98 mL 1M KH2PO4 (1.4 g K2HPO4+0.27 g KH2PO4 in 10 mL H2O), 32 μM Luciferin-IPA (Promega V9002)) 580 μl of 1 M K3PO4 buffer, 870 μL H2O, 14 μL of 3 mM Luciferin-IPA, and 18 μL of human liver microsome (Sigma M0317-1VL) was made. 12.5 μL of 4× assay buffer was added to each well. For the well of blank control, 12.5 μL of 4× assay buffer without liver microsome was added. The plate was incubated at room temperature for 15 minutes. 2.75 mL NADPH buffer was made as follows: 2.42 mL H2O, 275 μL solution A and 55 μL solution B (NADPH regeneration system, Promega V9510). 25 μL of the buffer was added to each well. The plates were incubated at 37° C. for 11 minutes. 50 μL of luciferin detection reagent (Promega V9002) was added and the plates were incubated at room temperature for 5 minutes. The plate was read with a luminometer.
The dose-response curve and IC50 were obtained by fitting data to nonlinear regression model using GraphPad Prism software (v6.0).

Sequence of P-glycoprotein (P08183 whole entry): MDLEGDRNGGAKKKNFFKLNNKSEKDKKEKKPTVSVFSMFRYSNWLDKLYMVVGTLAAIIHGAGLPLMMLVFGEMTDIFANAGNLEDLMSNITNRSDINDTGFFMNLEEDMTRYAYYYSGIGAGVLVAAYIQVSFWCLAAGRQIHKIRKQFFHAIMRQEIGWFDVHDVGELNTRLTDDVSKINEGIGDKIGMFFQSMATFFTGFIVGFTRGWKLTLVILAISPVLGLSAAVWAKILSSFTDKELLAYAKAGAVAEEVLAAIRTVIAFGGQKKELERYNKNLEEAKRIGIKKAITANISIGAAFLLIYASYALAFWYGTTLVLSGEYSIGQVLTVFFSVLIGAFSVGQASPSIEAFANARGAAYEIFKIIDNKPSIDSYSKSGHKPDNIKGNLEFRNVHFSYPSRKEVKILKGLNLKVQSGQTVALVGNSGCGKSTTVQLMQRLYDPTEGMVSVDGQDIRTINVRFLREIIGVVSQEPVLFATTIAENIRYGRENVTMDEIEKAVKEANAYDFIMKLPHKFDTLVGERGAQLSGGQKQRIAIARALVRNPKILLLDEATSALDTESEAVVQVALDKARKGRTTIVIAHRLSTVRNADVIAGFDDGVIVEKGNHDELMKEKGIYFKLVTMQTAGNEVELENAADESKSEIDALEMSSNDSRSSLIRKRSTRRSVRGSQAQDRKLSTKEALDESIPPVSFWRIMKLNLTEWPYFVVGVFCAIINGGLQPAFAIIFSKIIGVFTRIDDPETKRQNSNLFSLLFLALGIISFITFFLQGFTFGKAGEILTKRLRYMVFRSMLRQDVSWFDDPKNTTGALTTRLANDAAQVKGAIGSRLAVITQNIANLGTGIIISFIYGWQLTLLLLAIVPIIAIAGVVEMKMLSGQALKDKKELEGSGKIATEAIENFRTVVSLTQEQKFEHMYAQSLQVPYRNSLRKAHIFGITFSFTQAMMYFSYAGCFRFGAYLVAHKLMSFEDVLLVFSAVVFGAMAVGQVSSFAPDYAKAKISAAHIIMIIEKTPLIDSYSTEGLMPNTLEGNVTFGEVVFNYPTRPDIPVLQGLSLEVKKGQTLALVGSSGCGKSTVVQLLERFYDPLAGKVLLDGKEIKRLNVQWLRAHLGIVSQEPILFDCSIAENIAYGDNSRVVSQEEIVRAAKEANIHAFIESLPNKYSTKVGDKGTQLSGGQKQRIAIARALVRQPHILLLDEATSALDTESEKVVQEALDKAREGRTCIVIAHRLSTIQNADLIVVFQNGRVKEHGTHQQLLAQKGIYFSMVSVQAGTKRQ
Sequence of CYP3A4 (P08684 whole entry): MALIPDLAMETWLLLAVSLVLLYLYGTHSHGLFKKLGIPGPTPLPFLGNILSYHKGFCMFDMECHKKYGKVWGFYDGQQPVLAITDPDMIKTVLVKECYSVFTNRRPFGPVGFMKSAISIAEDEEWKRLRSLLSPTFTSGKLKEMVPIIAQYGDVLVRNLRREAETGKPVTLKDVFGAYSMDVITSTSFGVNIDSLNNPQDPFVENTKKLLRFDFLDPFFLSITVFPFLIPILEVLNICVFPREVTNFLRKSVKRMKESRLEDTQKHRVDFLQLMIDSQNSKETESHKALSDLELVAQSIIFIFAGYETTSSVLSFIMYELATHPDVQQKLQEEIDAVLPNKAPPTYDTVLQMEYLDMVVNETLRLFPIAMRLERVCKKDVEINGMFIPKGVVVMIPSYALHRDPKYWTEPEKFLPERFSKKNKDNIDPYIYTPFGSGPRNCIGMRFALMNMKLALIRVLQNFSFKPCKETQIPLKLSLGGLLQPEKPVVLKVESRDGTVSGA

| EC50 (P-glycoprotein) | IC50 (CYP3A4) | IC50 (CYP3A4; human, microsomes, 11 min) | SMILES |
| --- | --- | --- | --- |
| < 100 nM | > 1000 nM |  | COC(=O)c1ccc(-c2nnn(-c3ccc(CCN(C)Cc4ccc5c(cnn5C)c4)cc3)n2)c(NC(=O)c2cc(=O)c3ccccc3o2)c1 [Compound 15, Methyl 4-(2-(4-(2-(methyl((1-methyl-1H-indazol-5-yl)methyl)amino)ethyl)phenyl)-2H-tetrazol-5-yl)-3-(4-oxo-4H-chromene-2-carboxamido)benzoate] |
| 100 to 250 nM |  | > 1000 nM | COc1cc2c(cc1OC)CN(CCc1ccc(-n3nnc(-c4cc(OC)c(OC)cc4NC(=O)c4ccc(-c5cccnc5)cc4)n3)cc1)CC2 [Compound 22, N-(2-(2-(4-(2-(6,7-Dimethoxy-3,4-dihydroisoquinolin-2(1H)-yl)ethyl)phenyl)-2H-tetrazol-5-yl)-4,5-dimethoxyphenyl)-4-(pyridin-3-yl)benzamide] |
| > 1000 nM | 500 to 1000 nM |  | COc1cc(NC(=O)c2cc(=O)c3ccccc3o2)c(-c2nnn(-c3ccc(CCN(Cc4cccc(-n5ccnc5)c4)Cc4ccc5c(cnn5C)c4)cc3)n2)cc1OC [Compound 3, N-(2-(2-(4-(2-((3-(1H-Imidazol-1-yl)benzyl)((1-methyl-1H-indazol-5-yl)methyl)amino)ethyl)phenyl)-2H-tetrazol-5-yl)-4,5-dimethoxyphenyl)-4-oxo-4H-chromene-2-carboxamide] |
